# Experimental data from PubChem BioAssay (NCI).
# Several values for one entry are separate records, joined by “and”; a condition that tells them apart may be missing. Equal values may be shown once.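 Interpolation was linear, between the two tested concentrations surrounding the appropriate level; five concentrations were tested over 48 hours in 96-well plates. GI50 is the concentration that inhibits growth by half. TGI: concentration producing complete growth inhibition.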
# Columns and labels:
# Assay in all cases: NCI anticancer screen, dose series, 48 h
# LOX IMVI melanoma = test system: LOX IMVI melanoma
# UACC-257 melanoma = test system: UACC-257 melanoma
# NCI/ADR-RES ovarian = test system: NCI/ADR-RES ovarian
# SN12C renal = test system: SN12C renal
# KM12 colon = test system: KM12 colon
# SF-268 CNS = test system: SF-268 CNS
# BT-549 breast = test system: BT-549 breast
# PC-3 prostate = test system: PC-3 prostate
# RXF 393 renal = test system: RXF 393 renal
# DU-145 prostate = test system: DU-145 prostate
SMILES,GI50 (LOX IMVI melanoma),TGI (LOX IMVI melanoma),GI50 (UACC-257 melanoma),TGI (UACC-257 melanoma),GI50 (NCI/ADR-RES ovarian),TGI (NCI/ADR-RES ovarian),GI50 (SN12C renal),TGI (SN12C renal),GI50 (KM12 colon),TGI (KM12 colon),GI50 (SF-268 CNS),TGI (SF-268 CNS),GI50 (BT-549 breast),TGI (BT-549 breast),GI50 (PC-3 prostate),TGI (PC-3 prostate),GI50 (RXF 393 renal),TGI (RXF 393 renal),GI50 (DU-145 prostate),TGI (DU-145 prostate)
C[n+]1ccc(-c2c3nc(c(-c4ccc5c(ccc[n+]5C)c4)c4ccc([nH]4)c(-c4cc[n+](C)cc4)c4nc(c(-c5ccc6c(ccc[n+]6C)c5)c5ccc2[nH]5)C=C4)C=C3)cc1,> 50 µM,> 50 µM,12.9 µM,48.5 µM,> 50 µM,> 50 µM,> 50 µM,> 50 µM,23.1 µM,> 50 µM,> 50 µM,> 50 µM,35.9 µM,> 50 µM,49.5 µM,> 50 µM,13.9 µM,> 50 µM,30.7 µM,> 50 µM
C=C1C(=O)OC2/C=C(\C)C3OC3/C=C(/C(=O)OC)C(OC(C)=O)C(OC(=O)C(C)(O)C(C)OC(C)=O)C12 (stereo not drawn),–,3.61 µM,–,2.34 µM,–,–,–,7.02 µM,–,6.36 µM,–,34.1 µM,–,2.37 µM,–,14.8 µM,–,1.35 µM,–,–
CC(=O)OCC1OC(n2c(-c3ccccc3)c(C)c(C)c(C#N)c2=S)C(OC(C)=O)C(OC(C)=O)C1OC(C)=O (stereo not drawn),14.1 µM and > 100 µM,> 100 µM,–,> 100 µM,–,> 100 µM,48.3 µM and > 100 µM,> 100 µM,–,> 100 µM,18.3 µM and 93.3 µM,> 100 µM,–,–,–,> 100 µM,23.8 µM and 68.3 µM,> 100 µM,36.9 µM and > 100 µM,> 100 µM
CC([O-])C(=O)[O-].NCC1CCC1CN.[Pt+4] (stereo not drawn),> 10 µM,> 10 µM,> 10 µM,> 10 µM,> 10 µM,> 10 µM,> 10 µM,> 10 µM,> 10 µM,> 10 µM,> 10 µM,> 10 µM,> 10 µM,> 10 µM,> 10 µM,> 10 µM,–,–,> 10 µM,> 10 µM
CCCCCCCCCC(CCCC(O)CC(=O)O)OC1OC(COC2OC(C)C(O)C(O)C2O)C(O)C(O)C1OC1OC(CO)C(O)C(O)C1OC1OC(C)C(O)C(O)C1O (stereo not drawn),> 40 µM,> 40 µM,> 40 µM,> 40 µM,> 40 µM,> 40 µM,> 40 µM,> 40 µM,> 40 µM,> 40 µM,> 40 µM,> 40 µM,> 40 µM,> 40 µM,> 40 µM,> 40 µM,> 40 µM,> 40 µM,> 40 µM,> 40 µM
C=C(CN1CCN(c2cccc(F)c2)CC1)c1ccc(C(=O)Nc2ccccc2N)cc1,1.67 µM,13.1 µM,8.19 µM,47.5 µM,0.307 µM,1.92 µM,2.74 µM,> 100 µM,1.38 µM,50.1 µM,2.3 µM,> 100 µM,1.33 µM,12.6 µM,0.689 µM,4.03 µM,0.563 µM,6.09 µM,1.8 µM,7.16 µM
COc1ccc(Cn2c(Br)c3c(c2-c2cc(OC)c(OC)c(OC)c2)CCc2sc(NC(C)=O)nc2-3)cc1,4.45 µM,42.8 µM,98.5 µM,> 100 µM,4.97 µM,> 100 µM,4.99 µM,> 100 µM,4.03 µM,> 100 µM,6.15 µM,> 100 µM,3.18 µM,19.4 µM,3.44 µM,> 100 µM,2.24 µM,10.7 µM,4.44 µM,> 100 µM
O=C1c2cccnc2C(=O)c2c1c(C(=O)OCCN1CCOCC1)c1ccccn21,< 0.01 µM,0.384 µM,0.0354 µM,0.592 µM,< 0.01 µM,13 µM,< 0.01 µM,1.78 µM,0.0725 µM,15.7 µM,< 0.0136 µM,16.2 µM,0.05 µM,2.62 µM,0.0816 µM,17.1 µM,< 0.0187 µM,2.91 µM,< 0.0175 µM,1.31 µM
O=[N+]([O-])c1ccc(-c2cn(-c3ccc(Cl)cc3)cn2)cc1,–,> 100 µM,–,> 100 µM,–,> 100 µM,–,> 100 µM,–,> 100 µM,–,> 100 µM,–,> 100 µM,–,> 100 µM,–,–,–,> 100 µM
Nc1c(C(=O)Nc2ccccc2)sc2nc3c(cc12)CCCC3,0.908 µM,> 100 µM,–,–,0.683 µM,> 100 µM,1.23 µM,> 100 µM,0.485 µM,> 100 µM,2.2 µM,> 100 µM,3.89 µM,> 100 µM,0.703 µM,> 71.2 µM,0.744 µM,8.17 µM,1.67 µM,> 58.9 µM
COC(=O)C1C2CCCN2OC1(C)CO (stereo not drawn),–,> 100 µM,–,> 100 µM,–,> 100 µM,–,> 100 µM,–,> 100 µM,–,> 100 µM,–,> 100 µM,–,> 100 µM,–,–,–,> 100 µM
CCN(CC)CC(O)C1CCC(c2ccccc2)CC1 (stereo not drawn),–,42.1 µM,–,50.5 µM,–,> 100 µM,–,> 100 µM,–,71.3 µM,–,> 100 µM,–,–,–,> 100 µM,–,45.1 µM,–,> 100 µM
COC(=O)c1ccc(C2SCC(=O)N2NC(=O)C(O)c2ccccc2)cc1 (stereo not drawn),> 100 µM,> 100 µM,> 100 µM,> 100 µM,–,–,> 100 µM,> 100 µM,> 100 µM,> 100 µM,> 100 µM,> 100 µM,> 100 µM,> 100 µM,> 100 µM,> 100 µM,> 100 µM,> 100 µM,> 100 µM,> 100 µM
COc1ccc(-c2nocc2-c2cc(OC)c(OC)c(OC)c2)cc1,0.212 µM,> 74.5 µM,–,–,0.0492 µM,> 61 µM,0.942 µM,> 96.2 µM,0.0386 µM,14.1 µM,0.683 µM,> 85.9 µM,0.112 µM,19.5 µM,0.0536 µM,37.6 µM,0.14 µM,0.797 µM,0.286 µM,> 100 µM
O=CC1(C2(C=O)c3ccccc3-c3ccccc32)c2ccccc2-c2ccccc21,1.89 µM,3.98 µM,2.16 µM,5.29 µM,2.54 µM,6.99 µM,2.34 µM,5.83 µM,–,–,2.37 µM,6.03 µM,2.01 µM,4.84 µM,1.44 µM,4.65 µM,–,–,2.29 µM,5.83 µM
CC/C=C\C/C=C\C[C@H]1C/C=C2/C(=O)C=C[C@H]2C/C=C\CCC(=O)O1,2.34 µM,4.78 µM,–,–,4.7 µM,> 14.3 µM,3.46 µM,8.77 µM,2.52 µM,5.7 µM,3.31 µM,10.4 µM,3.68 µM,10.1 µM,3.39 µM,12.5 µM,2.28 µM,4.61 µM,4.33 µM,> 14.3 µM
C=C1N(C)c2ccc(Cl)cc2C1(C)C,6.98 µM,55.5 µM,6.84 µM,60.5 µM,34.8 µM,> 100 µM,5.38 µM,38.1 µM,3.95 µM,13.7 µM,5.71 µM,> 100 µM,3.35 µM,22.3 µM,–,–,6.41 µM,35.8 µM,6.66 µM,> 100 µM
COc1ccc(-c2coc3cc(OC)cc(O)c3c2=O)cc1,–,> 100 µM,–,> 100 µM,–,> 100 µM,–,> 100 µM,–,> 100 µM,–,> 100 µM,–,–,–,> 100 µM,–,83.1 µM,–,> 100 µM
CC1=CC2C(C(C)C)CC1C1C(=O)OC(=O)C21 (stereo not drawn),–,> 100 µM,–,> 100 µM,–,> 100 µM,–,> 100 µM,–,–,–,> 100 µM,–,> 100 µM,–,> 100 µM,–,> 100 µM,–,> 100 µM
C[C@]12CC[C@H]3[C@@H](C[C@@H]4N=C(c5ccc(O)cc5)S[C@@]45C[C@H](O)CC[C@]35C)[C@@H]1CC[C@@H]2O,2.67 µM,14.6 µM,19.1 µM,> 100 µM,6.77 µM,> 100 µM,–,–,7.24 µM,> 100 µM,5.32 µM,> 100 µM,1.14 µM,19.4 µM,–,–,0.377 µM,1.31 µM,9.54 µM,> 100 µM
COc1ccc(CC2C3=C(CCCC3)CCN2C)cc1 (stereo not drawn),–,> 100 µM,–,> 100 µM,–,> 100 µM,–,> 100 µM,–,> 100 µM,–,> 100 µM,–,–,–,> 100 µM,–,> 100 µM,–,> 100 µM
Cc1nc2cc(N)c(Cl)cc2[nH]1,–,> 100 µM,–,> 100 µM,–,> 100 µM,–,> 100 µM,–,> 100 µM,–,> 100 µM,–,> 100 µM,–,> 100 µM,–,–,–,> 100 µM
O=C1C(Cl)=C(Nc2cccc(O)c2)C(=O)N1c1cccc(Cl)c1Cl,12.5 µM,28.5 µM,–,–,18.9 µM,46 µM,14.5 µM,28.2 µM,24.6 µM,86.8 µM,11.7 µM,28.8 µM,24.5 µM,61.2 µM,6.92 µM,28.6 µM,18.4 µM,42.4 µM,22.7 µM,48 µM
